Data as given in US8710097B2, “Flavonoid dimers and methods of making and using such” (The Hong Kong Polytechnic University, priority 2006, dated 2014).
Read-outs that look alike come from different tables or passages of the source.

Assays:
[1] = test system: MDA435/LCC6 MDR cells; test: cells; details: for reversing activity compared with verapamil: LCC6MDR, taxol, 5 μM; for doxorubicin sensitization / reversing effect on taxol resistance: MDA435/LCC6 MDR; for doxorubicin sensitization: dimers; for reversing effect on taxol resistance: dimers at 5 μM
Experimental: MDA435/LCC6 and P388 (both parent and MDR subtype) were maintained in DMEM and RPMI 1640 culture medium supplemented with 10% FBS, respectively. RPMI 1640 media also contained 100 units/ml penicillin and 100 μg/ml streptomycin. Cells were cultured at 37° C. in a humidified atmosphere with 5% CO2. A solution of 0.05% trypsin-EDTA was used to detach the MDA435/LCC6 (both wild type and MDR subtype) cells.
Cell proliferation assay. MDA435/LCC6 and P388 (both parent and MDR subtype) cells were seeded at 2000 and 5000 cells per well, respectively, in 96-well plates. Varying concentrations of anticancer drugs (Doxorubicin, Daunorubicin, Vincristine, Vinblastine, taxol, Mitoxantrone) with or without the flavonoid dimers were added in a final volume of 200 μl and cells were grown for 4 and 3 days for MDA435/LCC6 and P388 (both parent and MDR subtype) cells, respectively. For MDA435/LCC6 (both parent and MDR subtype), the corresponding drugs were added after cell attachment (24 hr incubation). To measure cell proliferation, the cell Titer 960 Aqueous Assay (Promega) was used according to the manufacturer's instructions. Briefly, MTS (2 mg/ml) and PMS (0.92 mg/ml) were mixed in a ratio of 20:1. 30 μl MTS/PMS mixture was added into each well and incubated for 2 hours at 37° C. Optical absorbance at 490 nm was then recorded using an ELISA microtiter plate reader (Bio-Rad). Each experiment was done at least in triplicate and repeated twice. Cytotoxicity of the anticancer drugs was expressed as the fraction of the cells survived relative to the untreated DMSO (0.05%) solvent controls.
MDA435/LCC6 is an estrogen-independent human breast cancer cell line. Its MDR subtype (MDA435/LCC6 MDR) was generated by transducing a retroviral vector directing the constitutive expression of the human MDR1 cDNA, producing a cell line with a classical MDR1 resistance pattern (MDA435/LCC6 and MDA435/LCC6MDR1: ascites models of human breast cancer. Br J Cancer 1996, 73, 154-161). The ability of the apigenin dimers of this invention to reverse taxol resistance in MDA435/LCC6 MDR cells were tested. […] Apigenin monomers 10a and 10b at 10 μM were used as the negative controls.

[2] = test system: pentamidine-resistant L. enriettii LePentR50 promastigotes; test: microbe, parasite or virus in culture; details: for pentamidine sensitization: LePentR50, FIG. 18A; for IC50: Leishmania enriettii, 72 h, read-out: IC50(μM) of synthetic flavonoid, LePentR50, cytotoxicity of compound alone, 72 hrs
Experimental: (§1) Cell lines and Cell Culture. Promastigotes of Leishmania enriettii (LePentR50, Le wild type, LeMDR1 −/− and LeMDR1-overexpressed LeV160 mutants) and Leishmania donovani (LdAG83, Ld2001 and Ld39) were employed in this study. The former is a natural infective strain of guinea pig and the latter is a clinical strain, which may cause visceral leishmaniasis in human. Both strains were cultured in Schneider's Drosophila Medium (Invitrogen), pH 6.9 supplemented with 10% (v/v) heat inactivated fetal calf serum (Hyclone) with 4 mM glutamine (Sigma) and 25 μg/mL gentamicin solution (Invitrogen), at 27° C. for 4 days (Cloning and functional analysis of an extrachromosomally amplified multidrug resistance-like gene in Leishmania enriettii. Mol. Biochem. Parasitol 1993, 60, 195-208).
Promastigotes of LeV160 were culture in the presence of 160 μg/mL vinblastine. No pentamidine and vinblastine (Sigma) was added to the Le wild type and LeMDR1 −/− mutant.
(§2) The viability of promastigotes was determined by the Cell Titer 96® Aqueous Assay (Promega) that employs a tetrazolium compound (MTS) and electron coupling reagent, phenazine methosulfate (PMS). Promastigotes were seeded into 96-well flat bottom microtiter plate at 1×10^5 cells per well in a final volume of 100 μL medium. To determine the cytotoxic effects of flavonoid dimers to the parasites, various concentrations of flavonoid dimers were added to the promastigotes. To determine the reversal effects of flavonoid dimers with different spacer lengths, various concentrations of antileishmanial drugs, one of pentamidine or SSG, vinblastine and puromycin was added to the wells with or without flavonoid dimers. The parasites were incubated at 27° C. for 72 hrs. Each concentration of antileishmanials with or without the flavonoid dimers was tested in triplicates in each experiment. A 2 mg/mL MTS and 0.92 mg/mL PMS were mixed at a ratio of 20:1 (MTS: PMS). After 72-hr incubation, 10 μL of MTS:PMS mixture was added into each well of microtiter plate. The plate was then incubated at 27° C. for 4 hrs for color development. After 4 hrs of incubation, the OD values were determined at 490 nm using automatic microtiter plate reader (Bio-Rad).

[3] = test system: wild type L. donovani LdAG83 promastigotes; test: Leishmania cell viability (MTS) assay; type: cell-based, Leishmania donovani; details: Leishmania donovani, read-out: IC50(μM) of synthetic flavonoid, LdAG83
Experimental: as §1, with “195-208). […]” for “195-208).”
as §2

[4] = test system: P388/ADR cells; test: Doxorubicin accumulation; type: cell-based, murine; details: monomer 10b at double concentration of the dimers, FIG. 11A
Experimental: For P388 (both parent and MDR subtype) cells, 1 ml (10^5 cells) confluent cells were aliquot into Eppendorf tube and pre-incubated with flavone dimers for 30 min at 37° C. Doxorubicin (final concentration of 10 μM) was then added and incubated for 2 h at 37° C. at a final concentration of 10 μM. The cell pellets were washed 3 times with cold PBS by using an Eppendorf micro-centrifuge and lysed with 0.3N HCL in 50% ethanol, and sonicated for 30s. After centrifugation at 10000 rpm/min for 3 min, the supernatant was saved. The fluorescence of doxorubicin was measured using a spectrofluorometer (λexcite=470 nm, λemit=585 nm).

[5] = test system: SSG-resistant L. donovani Ld39 promastigotes; test: microbe, parasite or virus in culture; type: cell-based, Leishmania donovani; details: for SSG resistance modulating activity: Ld39, FIG. 14B; for IC50: Leishmania donovani, 72 h, read-out: IC50(μM) of synthetic flavonoid, Ld39
Experimental: as §1, with “195-208). […]” for “195-208).”
as §2

O=c1cc(-c2ccc(OCCOCCOCCOCCOc3ccc(-c4cc(=O)c5ccc(F)cc5o4)cc3)cc2)oc2cc(F)ccc12 [Compound 35b, 1,13-Bis[4′-(7-fluoro-4H-chromen-4-on-2-yl)phenyl]-1,4,7,10,13-pentaoxamidecane]
reversing activity compared with verapamil [1]: stronger reversing activity than verapamil

Cc1ccc2oc(-c3ccc(OCCOCCOCCOCCOc4ccc(-c5cc(=O)c6cc(C)ccc6o5)cc4)cc3)cc(=O)c2c1 [Compound 35h, 1,13-Bis[4′-(6-methyl-4H-chromen-4-on-2-yl)phenyl]-1,4,7,10,13-pentaoxamidecane]
reversing activity compared with verapamil [1]: stronger reversing activity than verapamil

C=C[C@H]1C[N@@]2CC[C@H]1C[C@H]2[C@H](O)c1ccnc2ccc(OC)cc12 [quinine, reference compound]
pentamidine sensitization [2]: less than half-fold sensitization

O=c1cc(-c2ccc(OCCOc3ccc(-c4cc(=O)c5c(O)cc(O)cc5o4)cc3)cc2)oc2cc(O)cc(O)c12 [Compound 9a, 1,4-Bis[4′-((5,7-dihydroxy)-4H-chromen-4-on-2-yl)phenyl]-1,4-dioxabutane]
doxorubicin sensitization [1]: very little or no doxorubicin sensitization
reversing effect on taxol resistance [1]: little or no reversing effect
IC50 ([3]; 72 h): 95 ± 3.2 µM
activity on doxorubicin accumulation [4]: little or no activity at all
IC50 [2]: > 200 µM
SSG resistance modulating activity ([5]; dimers at 6 μM): did not show substantial SSG resistance modulating activity
IC50 [5]: 117 ± 10 µM

COC(=O)[C@H]1[C@H]2C[C@@H]3c4[nH]c5cc(OC)ccc5c4CCN3C[C@H]2C[C@@H](OC(=O)c2cc(OC)c(OC)c(OC)c2)[C@@H]1OC [reserpine, reference compound]
pentamidine sensitization [2]: ~3.2 fold

O=c1cc(-c2ccc(OCCOCCOCCOCCOCCOCCOCCOCCOCCOc3ccc(-c4cc(=O)c5c(O)cc(O)cc5o4)cc3)cc2)oc2cc(O)cc(O)c12 [Compound 9i, 1,28-Bis[4′-((5,7-dihydroxy)-4H-chromen-4-on-2-yl)phenyl]-1,4,7,10,13,16,19,22,25,28-decaoxaoctacosane]
IC50 ([3]; 72 h): 10 ± 0.3 µM
IC50 [5]: 14 ± 0.1 µM

O=c1cc(-c2ccc(OCCOCCOCCOCCOCCOCCOc3ccc(-c4cc(=O)c5c(O)cc(O)cc5o4)cc3)cc2)oc2cc(O)cc(O)c12 [Compound 9f, 1,19-Bis[4′-((5,7-dihydroxy)-4H-chromen-4-on-2-yl)phenyl]-1,4,7,10,13,16,19-heptaoxanonadecane]
doxorubicin sensitization [1]: very little or no doxorubicin sensitization
reversing effect on taxol resistance [1]: little or no reversing effect
IC50 ([3]; 72 h): 11 ± 2 µM
IC50 [2]: 40 ± 5.3 µM
IC50 [5]: 13 ± 0.6 µM

O=c1cc(-c2ccc(O)cc2)oc2cc(O)cc(O)c12 [Apigenin, reference compound]
IC50 ([3]; cytotoxicity of compound alone, 72 hrs): 32 ± 4.1 µM
IC50 [2]: 55 ± 2.6 µM
SSG resistance modulating activity ([5]; 12 μM): did not give any significant modulating activity
IC50 [5]: 43 ± 5.9 µM

O=c1cc(-c2ccc(OCCOCCOCCOCCOc3ccc(-c4cc(=O)c5ccccc5o4)cc3)cc2)oc2ccccc12 [Compound 35a, 1,13-Bis[4′-(4H-chromen-4-on-2-yl)phenyl]-1,4,7,10,13-pentaoxamidecane]
reversing activity compared with verapamil [1]: stronger reversing activity than verapamil

CCN(CC)CCCC(C)Nc1c2ccc(Cl)cc2nc2ccc(OC)cc12 (stereo not drawn) [quinacrine, reference compound]
pentamidine sensitization [2]: ~4.5 fold

C=C[C@H]1C[N@@]2CC[C@H]1C[C@@H]2[C@@H](O)c1ccnc2ccc(OC)cc12 [quinidine, reference compound]
pentamidine sensitization [2]: less than half-fold sensitization

Cc1ccc2c(=O)cc(-c3ccc(OCCOCCOCCOCCOc4ccc(-c5cc(=O)c6ccc(C)cc6o5)cc4)cc3)oc2c1 [Compound 35g, 1,13-Bis[4′-(7-methyl-4H-chromen-4-on-2-yl)phenyl]-1,4,7,10,13-pentaoxamidecane]
reversing activity compared with verapamil [1]: stronger reversing activity than verapamil

O=c1cc(-c2ccc(OCCOCCOCCOCCOc3ccc(-c4cc(=O)c5cc(Cl)cc(Cl)c5o4)cc3)cc2)oc2c(Cl)cc(Cl)cc12 [Compound 35f, 1,13-Bis[4′-(6,8-dichloro-4H-chromen-4-on-2-yl)phenyl]-1,4,7,10,13-pentaoxamidecane]
reversing activity compared with verapamil [1]: stronger reversing activity than verapamil

O=c1cc(-c2ccc(OCCOCCOCCOCCOCCOc3ccc(-c4cc(=O)c5c(O)cc(O)cc5o4)cc3)cc2)oc2cc(O)cc(O)c12 [Compound 9e, 1,16-Bis[4′-((5,7-dihydroxy)-4H-chromen-4-on-2-yl)phenyl]-1,4,7,10,13,16-hexaoxahexadecane]
doxorubicin sensitization [1]: very little or no doxorubicin sensitization
reversing effect on taxol resistance [1]: little or no reversing effect
IC50 ([3]; 72 h): 30 ± 1.2 µM
activity on doxorubicin accumulation [4]: little or no activity at all
IC50 [2]: 70 ± 3 µM
IC50 [5]: 42 ± 2.3 µM
